The record followed here is US20160215268A1, “Suspension Culturing of Pluripotent Stem Cells” (Janssen Biotech, Inc., priority 2014, published 2016).

For this experiment, the system named is human embryonic stem cell line H1. The experiment is described as follows: OpenArray qRT-PCR mRNA expression in differentiating H1 cells. It counts as cell-based. The settings on record: Example 5, condition A, beginning of Stage 6, 100 nM. How it is done:
In addition to monitoring the metabolic profile of the spent media through daily sampling, representative samples of cells were obtained throughout the differentiation process and tested for mRNA expression of a panel of genes via Applied Biosystems® OpenArray® (Life Technologies) and calculated as fold difference in expression compared to pluripotent ISM cells after 24 hours in culture from the beginning of the experiment. FIGS. 2A through M depict data for expression of the following genes in cells differentiated through the first day of Stage 5: PDX1 (FIG.2A); NKX6.1 (FIG. 2B); PAX4 (FIG. 2C); PAX6 (FIG. 2D); NEUROG3(NGN3) (FIG. 2E); ABCC8 (FIG. 2F); Chromogranin-A (“CHGA”) (FIG. 2G); G6PC2 (FIG. 2H); IAPP (FIG. 2I); insulin (“INS”) (FIG. 2J); glucagon (“GCG”) (FIG. 2K); PTF1a (FIG. 2L); and NEUROD1 (FIG. 2M).
In addition to determining cell protein expression by flow cytometry, samples throughout Stages 3 and 4 of the differentiation process were tested for mRNA expression of a gene panel using OpenArray® qRT-PCR. […]
Throughout the differentiation process cell samples were collected from the suspension cultures for analysis. Samples were analyzed for mRNA expression (OpenArray® qRT-PCR) and protein expression (flow cytometry and florescent immune-histochemistry).
For orientation: Quantitative PCR measures a nucleic acid by following its amplification.

With `C[C@H](NC(=O)Cc1cc(F)cc(F)c1)C(=O)N[C@@H]1C(=O)N(C)c2ccccc2-c2ccccc21` [gamma secretase inhibitor XX], the NGN3 expression entry was “second induction of NGN3”.
